According to patent US20220227745A1, “Compounds For Modulating FXR” (NANJING RUIJIE PHARMA TECH CO., LTD., priority 2019, published 2022):

How the values were obtained:
[1] = in vivo; cited from earlier work
FXR = target: T1, FXR (Homo sapiens, UniProt Q96RI1); conditions: cited from earlier work
T1 sequence (Q96RI1 1-486): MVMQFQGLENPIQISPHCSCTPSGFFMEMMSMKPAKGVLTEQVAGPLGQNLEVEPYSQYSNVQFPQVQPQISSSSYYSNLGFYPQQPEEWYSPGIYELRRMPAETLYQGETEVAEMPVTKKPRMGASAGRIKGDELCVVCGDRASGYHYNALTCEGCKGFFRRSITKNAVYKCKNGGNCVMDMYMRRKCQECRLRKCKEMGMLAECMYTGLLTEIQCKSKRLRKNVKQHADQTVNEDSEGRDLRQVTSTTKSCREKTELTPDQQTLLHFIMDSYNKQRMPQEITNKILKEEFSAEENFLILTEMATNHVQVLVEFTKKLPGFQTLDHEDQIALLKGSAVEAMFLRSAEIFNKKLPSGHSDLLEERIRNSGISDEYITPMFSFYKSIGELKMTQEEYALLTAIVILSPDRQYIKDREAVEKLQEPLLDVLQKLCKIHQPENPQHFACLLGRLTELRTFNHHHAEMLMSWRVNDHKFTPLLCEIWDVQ

[2] = target: T2, hFXR-LBD (FXR-GAL4 chimeric receptor) (Homo sapiens, UniProt Q96RI1); assay: FXR Transactivation Assay (GAL4 luciferase reporter in HEK293T cells); type: cell-based
T2 construct: host or cells: HEK293T
T2 sequence (Q96RI1 262-486 limits assumed): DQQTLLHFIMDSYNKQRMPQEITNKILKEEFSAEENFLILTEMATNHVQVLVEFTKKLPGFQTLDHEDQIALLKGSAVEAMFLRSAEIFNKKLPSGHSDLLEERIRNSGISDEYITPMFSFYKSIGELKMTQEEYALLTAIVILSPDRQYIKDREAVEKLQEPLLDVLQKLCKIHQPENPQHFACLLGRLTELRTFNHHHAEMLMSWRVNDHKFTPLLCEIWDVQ
Method: FXR Transactivation Assay
The present compounds were tested to assess their ability to stimulate FXR transactivation activity. The hFXR-LBD, coding sequence was inserted into the pBIND expression vector (Promega, E1581) to express FXR-GAL4 binding domain chimeric receptors. This expression vector and reporter vector (pGL4.35 which carry a stably integrated GAL4 promoter driven luciferase reporter gene) were co-transfected into HEK293T host cells. Upon agonist binding to the corresponding FXR-GAL4 chimeric receptor, the chimeric receptor binds to the GAL4 binding sites and stimulates the reporter gene.
All the working stock were shake for 5 min on plate shaker (QILINBEIER). Second, all cells were cultured as ATCC recommended. HEK293T cells were assayed in exponential growth phase. Removed culture medium from the flask and rinsed cells with PBS. Added TrypLE solution to the flask and make cells detach. Next, cells were washed once with complete growth medium. Then, cells were pelleted and washed twice with PBS to remove phenol red and resuspend them in medium to a proper concentration. Only cells with viability greater than 90% were used for assays. Seeded 6×10^6 HEK293T cells into a 100 mm dish and incubated at 37° C. under 5% CO2 atmosphere for 16 h. Third, Trans-IT reagent and Opti-MEM mix by inversion and incubate 5 min at room temperature. The cell transfection was performed by mixing DNA and the reagent mixture, as well as 6 μg GAL4-FXR plasmid or 2 μg pGL4.35 luciferase plasmid, respectively. The reagent mixture was added to a 100 mm dish and incubated for 4-7 hrs at 37° C. under 5% CO2 atmosphere. Fourth, transferred 75 nl compound dilutions into 384-well assay plates (PerkinElmer) and seeded HEK293T cells at 17,000 cells/well using phenol red-free DMEM containing 5% charcoal/dextran-treated FBS. Then, cells were incubated for 16-20 h at 37° C. under 5% CO2 atmosphere. Finally, added 25 μl Steady-Glo™ Luciferase Assay Reagent into each well of 384-well assay plate, and then shake plate for 5 min protected from light on a plate shaker. Then, the luminescence value was read on Evision 2104 plate reader (PerkinElmer).
The activity ratio was calculated as follow: […]
RLU: Resulting Luminescence
RLUpositive: The average RLU for the positive controls across the plate.
RLUvehicle: The average RLU for negative controls across the plate.
EC50 was calculated by fitting % Activity values and log of compound concentrations to nonlinear regression (dose response-variable slope) with GraphPad 5.0.
X: log of compound concentration.

FXR LBD, GST = target: T3, FXR LBD, GST (Homo sapiens, UniProt Q96RI1); assay: FXR Binding Assay (TR-FRET, Fluorescein-SRC2-2 coactivator peptide); conditions: for Emax / Pct Effect (Emax %): % Activity relative to positive control; for Emax: read-out: Pct Effect (Emax %); for EC50: TR-FRET FXR LBD coactivator recruitment
T3 construct: FXR LBD, GST; purchased Invitrogen PV4834
T3 sequence (Q96RI1 262-486 limits assumed): T2 sequence (Q96RI1 262-486 limits assumed)

[3] = preclinical species; cited from earlier work
other nuclear receptor = conditions: cited from earlier work
[4] = OCA treatment, clinical studies; cited from earlier work
[5] = cited from earlier work

| SMILES | EC50 [2] [nM] | Emax (FXR LBD, GST) [%] | EC50 (FXR LBD, GST) [nM] | other results |
| --- | --- | --- | --- | --- |
| CC(C)c1onc(-c2c(Cl)cccc2Cl)c1COc1ccc(/C=C/c2cccc(C(=O)O)c2)c(Cl)c1 [GW4604] |  |  |  | bioavailability [1]: low bioavailability; agonistic activity to FXR (FXR): strong agonistic activity |
| Cn1cc(C(=O)O)c2ccc(C3CCN(CCc4c(-c5c(Cl)cccc5Cl)noc4C4CC4)CC3)cc21 [Example I36, 6-(1-(2-(5-cyclopropyl-3-(2,6-dichlorophenyl)isoxazol-4-yl)ethyl)piperidin-4-yl)-1-methyl-1H-indole-3-carboxylic Acid] | 577 | 161 | 94 |  |
| Cn1cc(C(=O)O)c2ccc(N3CCN(CCc4c(-c5ccccc5OC(F)(F)F)noc4C4CC4)CC3)cc21 [Example I20, 6-(4-(2-(5-cyclopropyl-3-(2-(trifluoromethoxy)phenyl)isoxazol-4-yl)ethyl)piperazin-1-yl)-1-methyl-1H-indole-3-carboxylic Acid] | 906 | 193 | 450 |  |
| Cn1cc(C(=O)O)c2ccc(N3CCN(CCc4c(-c5c(Cl)cccc5Cl)noc4C4CC4)CC3(C)C)cc21 [Example I25, 6-(4-(2-(5-cyclopropyl-3-(2,6-dichlorophenyl)isoxazol-4-yl)ethyl)-2,2-dimethylpiperazin-1-yl)-1-methyl-1H-indole-3-carboxylic Acid] | 288 | 151 | 83 |  |
| O=C(O)c1c[nH]c2cc(N3CCN(CCc4c(-c5c(Cl)cccc5Cl)noc4C4CC4)CC3)ccc12 [Example I15, 6-(4-(2-(5-cyclopropyl-3-(2,6-dichlorophenyl)isoxazol-4-yl)ethyl)piperazin-1-yl)-1H-indole-3-carboxylic Acid] | 667 | 168 | 419 |  |
| O=C(O)c1ccc2nc(N3CCN(CCc4c(-c5c(Cl)cccc5Cl)noc4C4CC4)CC3)sc2c1 [Example I4, 2-(4-(2-(5-cyclopropyl-3-(2,6-dichlorophenyl)isoxazol-4-yl)ethyl)piperazin-1-yl)benzo[d]thiazole-6-carboxylic Acid] | 1500 | 89.8 | 244 |  |
| Cn1cc(C(=O)O)c2ccc(N3CCN(CCc4c(-c5c(Cl)cccc5Cl)noc4C4CC4)C(C)(C)C3)cc21 [Example I38, 6-(4-(2-(5-cyclopropyl-3-(2,6-dichlorophenyl)isoxazol-4-yl)ethyl)-3,3-dimethylpiperazin-1-yl)-1-methyl-1H-indole-3-carboxylic Acid] | 377 | 133 | 48 |  |
| Cn1cc(C(=O)O)c2ccc(N3CCN(CCc4c(-c5ccccc5C(F)(F)F)noc4C4CC4)CC3)cc21 [Example I26, 6-(4-(2-(5-cyclopropyl-3-(2-(trifluoromethyl)phenyl)isoxazol-4-yl)ethyl)piperazin-1-yl)-1-methyl-1H-indole-3-carboxylic Acid] | 1210 | 214 | 882 |  |
| Cn1cc(C(=O)O)c2ccc(N3CCN(CCc4c(-c5c(Cl)cccc5Cl)noc4C4CC4)CC3)cc21 [Example I1, 6-(4-(2-(5-cyclopropyl-3-(2,6-dichlorophenyl)isoxazol-4-yl)ethyl)piperazin-1-yl)-1-methyl-1H-indole-3-carboxylic Acid] | 101 | 161 | 58 |  |
| Cn1cc(C(=O)O)c2ccc(N3CCC(OCc4c(-c5c(Cl)cccc5Cl)noc4C4CC4)CC3)cc21 [LY-2562175] |  |  |  | effect on LDL, triglycerides and HDL [3]: lowered LDL and triglycerides while raising HDL; transcriptional activation of other nuclear receptor (other nuclear receptor): didn't promote transcriptional activation of other nuclear receptor |
| Cn1cc(C(=O)O)c2ccc(N3CCCN(CCc4c(-c5c(Cl)cccc5Cl)noc4C4CC4)CC3)cc21 [Example I7, 6-(4-(2-(5-cyclopropyl-3-(2,6-dichlorophenyl)isoxazol-4-yl)ethyl)-1,4-diazepan-1-yl)-1-methyl-1H-indole-3-carboxylic Acid] | 743 | 98.1 | 25 |  |
| CC[C@H]1[C@@H](O)[C@@H]2[C@H](CC[C@]3(C)[C@@H]([C@H](C)CCC(=O)O)CC[C@@H]23)[C@@]2(C)CC[C@@H](O)C[C@@H]12 [OCA, 6α-ethyl-chenodeoxycholic acid] |  |  |  | pruritus [4]: may be associated with increased pruritus |
| Cn1cc(C(=O)O)c2cc(F)c(N3CCN(CCc4c(-c5c(Cl)cccc5Cl)noc4C4CC4)CC3)cc21 [Example I42, 6-(4-(2-(5-cyclopropyl-3-(2,6-dichlorophenyl)isoxazol-4-yl)ethyl)piperazin-1-yl)-5-fluoro-1-methyl-1H-indole-3-carboxylic Acid] | 551 |  | 99 | Pct Effect (Emax %) (FXR LBD, GST): 196.20% |
| COc1cccc(Cl)c1-c1noc(C2CC2)c1CCN1CCN(c2ccc3c(C(=O)O)cn(C)c3c2)CC1 [Example I21, 6-(4-(2-(3-(2-chloro-6-methoxyphenyl)-5-cyclopropylisoxazol-4-yl)ethyl)piperazin-1-yl)-1-methyl-1H-indole-3-carboxylic Acid] | 2860 | 85.1 | 890 |  |
| Cn1cc(C(=O)O)c2cc(F)c(N3CCN(CCc4c(-c5c(Cl)cccc5Cl)noc4C4CC4)CC3)cc21 [Example I45, 6-(4-(2-(5-cyclopropyl-3-(2,6-dichlorophenyl)isoxazol-4-yl)ethyl)piperazin-1-yl)-5-fluoro-1-methyl-1H-indole-3-carboxylic Acid] | 224 |  | 72 | Pct Effect (Emax %) (FXR LBD, GST): 161.70% |
| O=C(O)c1cc(F)c2nc(N3[C@@H]4CC[C@H]3C[C@@H](OCc3c(-c5ccccc5OC(F)(F)F)noc3C3CC3)C4)sc2c1 [LJN452] |  |  |  | drug-related pruritus ([5]; after multiple doses): No drug-related pruritus was observed; ALT/AST ([5]; individual subjects): ALT/AST increased in individual subjects; drug-related adverse reactions ([5]; single dose of up to 3 mg): No drug-related adverse reactions were observed; safety and tolerability ([5]; single dose of up to 3 mg): performed well in safety and tolerability |
| Cn1nc(C(=O)O)c2ccc(N3CCN(CCc4c(-c5c(Cl)cccc5Cl)noc4C4CC4)CC3)cc21 [Example I17, 6-(4-(2-(5-cyclopropyl-3-(2,6-dichlorophenyl)isoxazol-4-yl)ethyl)piperazin-1-yl)-1-methyl-1H-indazole-3-carboxylic Acid] | 1230 | 131 | 46 |  |
